Results taken from US10000487B2, “Heterocyclic compounds that inhibit the kinase activity of Mnk useful for treating various cancers” (eFFECTOR Therapeutics, Inc., priority 2015, dated 2018).
pIC50: −log10 of the molar value.

What was measured:
recombinant MNK1 = recombinant MNK1 (Homo sapiens (Human), UniProt Q9BUB5); assay: MNK biochemical enzymatic assay (ADP-Glo), MNK1; parameters: key to MNK1 IC50: IC50 values of less than 0.01 μM are labelled as “+++”; from 0.01 to 0.10 μM are labelled as “++”; from 0.1 to 10 μM are labelled as “+”; Inactive: greater than 10 μM are labelled inactive; conditions: 10 nM MNK1, 300 μM ATP
recombinant MNK1, sequence (Q9BUB5 whole entry): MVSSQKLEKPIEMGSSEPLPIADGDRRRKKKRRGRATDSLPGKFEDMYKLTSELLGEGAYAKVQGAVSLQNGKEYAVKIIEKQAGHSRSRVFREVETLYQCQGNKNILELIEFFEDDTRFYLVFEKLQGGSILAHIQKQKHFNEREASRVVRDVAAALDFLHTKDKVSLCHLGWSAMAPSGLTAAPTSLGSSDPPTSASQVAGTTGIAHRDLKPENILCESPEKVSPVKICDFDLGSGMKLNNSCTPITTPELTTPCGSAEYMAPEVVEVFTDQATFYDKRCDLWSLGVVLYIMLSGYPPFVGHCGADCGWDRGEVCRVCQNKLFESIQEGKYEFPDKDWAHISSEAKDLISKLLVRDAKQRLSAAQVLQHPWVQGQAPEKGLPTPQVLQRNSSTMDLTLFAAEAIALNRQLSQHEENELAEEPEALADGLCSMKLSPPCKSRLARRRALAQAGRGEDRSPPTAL
Description: (§1) Compounds are screened for MNK inhibition using the ADP-Glo kinase assay kit (Promega, catalogue No. V9101). All kinase reactions are performed in Reaction Buffer E (15 mM HEPES pH7.4, 20 mM NaCl, 1 mM EGTA, 10 mM MgCl2, 0.1 mg/ml BGG, and 0.02% Tween-20). Final MNK1 reactions contained 10 nM recombinant MNK1 (Life Technologies, PR9138A), 100 μM MNK substrate peptide Ac-TATKSGSTTKNR-NH2 (American Peptide Company), 300 μM ATP, and varying concentrations of the inhibitory compound of interest. Final MNK2 reactions contained 3 nM recombinant MNK2 (Life Technologies, PV5607), 50 μM MNK substrate peptide Ac-TATKSGSTTKNR-NH2 (American Peptide Company), 10 μM ATP, and varying concentrations of the inhibitory compound of interest. Final DMSO concentration in each reaction is 1%.
(§2) Kinase reactions are carried out in 96-well half-area white flat-bottom polystyrene plates in a final volume of 25 μl. MNK1/2 enzymes are pre-incubated with compound and peptide substrate for 5 minutes prior to the addition of ATP. After the addition of ATP, kinase reactions are incubated at room temperature for 40 minutes. Reactions are subsequently stopped by the addition of 25 μl of ADP-Glo Reagent and incubating for an additional 40 minutes. The final luminescent signal used for kinase activity readout is produced by the addition of 45 μl of Kinase Detection Reagent (ADP-Glo kit, Promega) and incubating for 40 minutes. The luminescent signal is detected using a Victor 2 multilabel counter (Perkin Elmer) and the concentration of compound necessary to achieve inhibition of enzyme activity by 50% (IC50) is calculated using signals from an 8-point compound dilution series.

recombinant MNK2 = recombinant MNK2 (Homo sapiens (Human), UniProt Q9HBH9); assay: MNK biochemical enzymatic assay (ADP-Glo), MNK2; conditions: 3 nM MNK2, 10 μM ATP
recombinant MNK2, sequence (Q9HBH9 whole entry): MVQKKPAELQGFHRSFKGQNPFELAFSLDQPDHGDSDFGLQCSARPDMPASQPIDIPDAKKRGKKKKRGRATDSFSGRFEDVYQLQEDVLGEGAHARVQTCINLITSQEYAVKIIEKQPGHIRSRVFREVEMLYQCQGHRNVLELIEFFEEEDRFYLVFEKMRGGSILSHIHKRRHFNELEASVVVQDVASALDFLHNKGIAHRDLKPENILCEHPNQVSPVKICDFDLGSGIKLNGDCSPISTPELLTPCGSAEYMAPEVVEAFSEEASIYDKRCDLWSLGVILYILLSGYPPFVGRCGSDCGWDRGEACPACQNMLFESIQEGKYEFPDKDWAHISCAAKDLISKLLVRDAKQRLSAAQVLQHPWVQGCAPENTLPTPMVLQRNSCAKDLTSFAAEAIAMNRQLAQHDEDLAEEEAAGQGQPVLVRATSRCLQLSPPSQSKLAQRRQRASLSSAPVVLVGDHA
Description: as §1, §2

Phosphorylated eIF4E = assay: peIF4E signaling cellular assay (CisBio HTRF); assay type: cell-based; conditions: 2 hrs incubation at 37° C.
Description: Phosphorylated eIF4E is assayed using the CisBio peIF4E HTRF® assay kit (CisBio, catalogue No. 64EF4PEG). Cells are plated in 96-well tissue-culture treated plate in appropriate growth medium (90 μL). Compounds (10×) are diluted using 3-fold serial dilutions in cell culture medium and added to cells. Plates are incubated for 2 hrs at 37° C. The cell supernatant is carefully removed either by aspirating supernatant or by flicking the plate. Immediately 50 μL of supplemented lysis buffer (1×) is added and incubated for at least 30 minutes at room temperature under shaking. After homogenization by pipeting up and down, 16 μL of cell lysate is transferred from the 96-well cell-culture plate to a 384-well small volume white plate. 4 μL of premixed antibody solutions (vol/vol) is prepared in the detection buffer and added. The plate is covered with a plate sealer and incubated overnight at room temperature. The fluorescence emissions at two different wavelengths are read (665 nm and 620 nm) on a Wallac Victor2. Emission ratios are converted into percent inhibitions and imported into GraphPad Prism software. […] IC50 values are determined using a nonlinear regression model available in GraphPad Prism 5.

| Compound | pIC50 (recombinant MNK1) | pIC50 (recombinant MNK2) | pIC50 (Phosphorylated eIF4E) | MNK1 IC50 (recombinant MNK1) |
| --- | --- | --- | --- | --- |
| O=C1NC2(CCCCC2)n2c1c(Cl)cc(Nc1nncs1)c2=O [1F, 6′-((1,3,4-thiadiazol-2-yl)amino)-8′-chloro-2′H-spiro[cyclohexane-1,3′-imidazo[1,5-a]pyridine]-1′,5′-dione] | 5.00 to 7.00 | 7.00 to 8.00 | 4.00 to 7.00 | – |
| O=C1NC2(CCCCC2)n2c1c(Cl)cc(Nc1ncns1)c2=O [2F, 6′-((1,2,4-thiadiazol-5-yl)amino)-8′-chloro-2′H-spiro[cyclohexane-1,3′-imidazo[1,5-a]pyridine]-1′,5′-dione] | 7.00 to 8.00 | > 8.00 | 4.00 to 7.00 | – |
| O=C1NC2(CCCCC2)n2c1c(Cl)cc(Nc1ncn[nH]1)c2=O [4F, 6′-((1H-1,2,4-triazol-5-yl)amino)-8′-chloro-2′H-spiro[cyclohexane-1,3′-imidazo[1,5-a]pyridine]-1′,5′-dione] | 5.00 to 7.00 | 7.00 to 8.00 | – | – |
| O=C1NC2(CCCCC2)n2c1c(Cl)cc(Nc1cnns1)c2=O [compound 3, 6′-((1,2,3-thiadiazol-5-yl)amino)-8′-chloro-2′H-spiro[cyclohexane-1,3′-imidazo[1,5-a]pyridine]-1′,5′-dione] | – | 7.00 to 8.00 | 4.00 to 7.00 | Inactive |
| O=C1NC2(CCCCC2)n2c1c(Cl)cc(Nc1cncs1)c2=O [compound 5, 8′-chloro-6′-(thiazol-5-ylamino)-2′H-spiro[cyclohexane-1,3′-imidazo[1,5-a]pyridine]-1′,5′-dione] | 5.00 to 7.00 | 7.00 to 8.00 | – | – |
| O=C1NC2(CCCCC2)n2c1c(Cl)cc(Nc1cnsn1)c2=O [compound 6, 6′-((1,2,5-thiadiazol-3-yl)amino)-8′-chloro-2′H-spiro[cyclohexane-1,3′-imidazo[1,5-a]pyridine]-1′,5′-dione] | – | > 8.00 | 4.00 to 7.00 | – |
| Cn1ncc(Nc2cc(Cl)c3n(c2=O)C2(CCCCC2)NC3=O)n1 [compound 7, 8′-chloro-6′-((2-methyl-2H-1,2,3-triazol-4-yl)amino)-2′H-spiro[cyclohexane-1,3′-imidazo[1,5-a]pyridine]-1′,5′-dione] | – | > 8.00 | 4.00 to 7.00 | – |
| O=C1NC2(CCCCC2)n2c1c(Cl)cc(Nc1nnco1)c2=O [compound 8, 6′-((1,3,4-oxadiazol-2-yl)amino)-8′-chloro-2′H-spiro[cyclohexane-1,3′-imidazo[1,5-a]pyridine]-1′,5′-dione] | 5.00 to 7.00 | 5.00 to 7.00 | 4.00 to 7.00 | – |
| O=C1NC2(CCCCC2)n2c1c(Cl)cc(Nc1cn[nH]n1)c2=O [compound 9, 6′-((2H-1,2,3-triazol-4-yl)amino)-8′-chloro-2′H-spiro[cyclohexane-1,3′-imidazo[1,5-a]pyridine]-1′,5′-dione] | 7.00 to 8.00 | > 8.00 | 4.00 to 7.00 | – |
| O=C1NC2(CCCCC2)n2c1c(Cl)cc(Nc1ncncn1)c2=O [compound 11, 6′-((1,3,5-triazin-2-yl)amino)-8′-chloro-2′H-spiro[cyclohexane-1,3′-imidazo[1,5-a]pyridine]-1′,5′-dione] | – | > 8.00 | 7.00 to 8.00 | – |
| Nc1cc(Nc2cc(Cl)c3n(c2=O)C2(CCCCC2)NC3=O)ccn1 [compound 13, 6′-((2-aminopyridin-4-yl)amino)-8′-chloro-2′H-spiro[cyclohexane-1,3′-imidazo[1,5-a]pyridine]-1′,5′-dione] | – | 7.00 to 8.00 | 4.00 to 7.00 | – |
